Measurements as given in ChEMBL document CHEMBL2029287, “Synthesis, study on anti-arthritic, anti-inflammatory activity and toxicity of some novel bis-oxy cyclophane diamides” (Bioorg Med Chem Lett, 2012).

Columns and labels:
[1] = In vitro antiarthritic activity assessed as inhibition of bovine serum albumin denaturation at 50 ug/mL incubated for 20 mins at 37 degC following rise in temperature up to 57 degC for 3 mins by UV-Visible spectrophotometry; assay type: functional
[2] = In vitro antiarthritic activity assessed as inhibition of bovine serum albumin denaturation at 100 ug/mL incubated for 20 mins at 37 degC following rise in temperature up to 57 degC for 3 mins by UV-Visible spectrophotometry; assay type: functional
[3] = In vitro antiarthritic activity assessed as inhibition of bovine serum albumin denaturation at 200 ug/mL incubated for 20 mins at 37 degC following rise in temperature up to 57 degC for 3 mins by UV-Visible spectrophotometry; assay type: functional
[4] = In vitro antiarthritic activity assessed as inhibition of bovine serum albumin denaturation at 400 ug/mL incubated for 20 mins at 37 degC following rise in temperature up to 57 degC for 3 mins by UV-Visible spectrophotometry; assay type: functional
[5] = In vitro antiarthritic activity assessed as inhibition of bovine serum albumin denaturation at 800 ug/mL incubated for 20 mins at 37 degC following rise in temperature up to 57 degC for 3 mins by UV-Visible spectrophotometry; assay type: functional
[6] = Antiinflammatory activity in human RBC assessed as membrane stabilization at 10 ug/mL after 30 mins by UV-Visible spectrophotometry; assay type: functional, Erythrocyte
[7] = Antiinflammatory activity in human RBC assessed as membrane stabilization at 50 ug/mL after 30 mins by UV-Visible spectrophotometry; assay type: functional, Erythrocyte
[8] = Antiinflammatory activity in human RBC assessed as membrane stabilization at 100 ug/mL after 30 mins by UV-Visible spectrophotometry; assay type: functional, Erythrocyte
[9] = Antiinflammatory activity in human RBC assessed as membrane stabilization at 200 ug/mL after 30 mins by UV-Visible spectrophotometry; assay type: functional, Erythrocyte
[10] = In vitro antiarthritic activity assessed as inhibition of bovine serum albumin denaturation incubated for 20 mins at 37 degC following rise in temperature up to 57 degC for 3 mins by UV-Visible spectrophotometry; assay type: functional
Erythrocyte = test: Antiinflammatory activity in human RBC assessed as membrane stabilization after 30 mins by UV-Visible spectrophotometry; assay type: functional
Salmonella typhimurium [11] = test: Mutagenic activity in Salmonella typhimurium TA 98 assessed as increase in revertants at 0.039 to 5 mg/plate after 48 hrs by Ames test relative to control; assay type: toxicity, organism-based; conditions: salmonella enterica subsp. enterica serovar typhimurium
Salmonella typhimurium [12] = test: Mutagenic activity in Salmonella typhimurium TA 98 assessed as increase in revertants at 0.039 to 5 mg/plate after 48 hrs by Ames test in presence of S9 liver fraction relative to control; assay type: toxicity, organism-based; conditions: salmonella enterica subsp. enterica serovar typhimurium
Salmonella typhimurium [13] = test: Mutagenic activity in Salmonella typhimurium TA 100 assessed as increase in revertants at 0.039 to 5 mg/plate after 48 hrs by Ames test relative to control; assay type: toxicity, organism-based; conditions: salmonella enterica subsp. enterica serovar typhimurium
Salmonella typhimurium [14] = test: Mutagenic activity in Salmonella typhimurium TA 100 assessed as increase in revertants at 0.039 to 5 mg/plate after 48 hrs by Ames test in presence of S9 liver fraction relative to control; assay type: toxicity, organism-based; conditions: salmonella enterica subsp. enterica serovar typhimurium
Salmonella typhimurium [15] = test: Mutagenic activity in Salmonella typhimurium TA 98 assessed as increase in revertants at 0.012 to 1.660 mg/plate after 48 hrs by Ames test relative to control; assay type: toxicity, organism-based; conditions: salmonella enterica subsp. enterica serovar typhimurium
Salmonella typhimurium [16] = test: Mutagenic activity in Salmonella typhimurium TA 98 assessed as increase in revertants at 0.012 to 1.660 mg/plate after 48 hrs by Ames test in presence of S9 liver fraction relative to control; assay type: toxicity, organism-based; conditions: salmonella enterica subsp. enterica serovar typhimurium
Salmonella typhimurium [17] = test: Mutagenic activity in Salmonella typhimurium TA 100 assessed as increase in revertants at 0.012 to 1.660 mg/plate after 48 hrs by Ames test relative to control; assay type: toxicity, organism-based; conditions: salmonella enterica subsp. enterica serovar typhimurium
Salmonella typhimurium [18] = test: Mutagenic activity in Salmonella typhimurium TA 100 assessed as increase in revertants at 0.012 to 1.660 mg/plate after 48 hrs by Ames test in presence of S9 liver fraction relative to control; assay type: toxicity, organism-based; conditions: salmonella enterica subsp. enterica serovar typhimurium

Structure (SMILES) | inhibition [1] | inhibition [2] | inhibition [3] | inhibition [4] | inhibition [5] | Activity [6] | Activity [7] | Activity [8] | Activity [9] | inhibition [10] | Activity (Erythrocyte) | Ratio (Salmonella typhimurium [11]) | Ratio (Salmonella typhimurium [12]) | Ratio (Salmonella typhimurium [13]) | Ratio (Salmonella typhimurium [14]) | Ratio (Salmonella typhimurium [15]) | Ratio (Salmonella typhimurium [16]) | Ratio (Salmonella typhimurium [17]) | Ratio (Salmonella typhimurium [18])
O=C1COc2ccc3ccc(cc3c2)OCC(=O)NCc2ccc(cc2)-c2cccc(c2)-c2ccc(cc2)CN1 | 20.1% | 49.5% | 67.9% | 84.3% | 90.6% | 76.5% | 85.5% | 90.9% | 97.2% | Dose-dependent effect | Dose-dependent effect | – | – | – | – | – | – | – | –
O=C1NCc2ccc(cc2)-c2cccc(c2)-c2ccc(cc2)CNC(=O)c2cccc(c2)OCc2ccc(cc2)COc2cccc1c2 | 13.1% | 36.8% | 55.3% | 67.7% | 83.9% | 57.63% | 66.7% | 82.2% | 91.8% | Dose-dependent effect | Dose-dependent effect | – | – | – | – | – | – | – | –
O=C1NCc2ccc(cc2)-c2cccc(c2)-c2ccc(cc2)CNC(=O)c2cccc(c2)OCc2cccc(n2)COc2cccc1c2 | 22% | 38.2% | 56.3% | 70% | 82.4% | 70.23% | 76.93% | 84.73% | 95.1% | Dose-dependent effect | Dose-dependent effect | – | – | – | – | – | – | – | –
O=C1NCc2ccc(cc2)-c2cccc(c2)-c2ccc(cc2)CNC(=O)c2cccc(c2)OCc2ccccc2COc2cccc1c2 | 25.4% | 50.1% | 72.1% | 81.9% | 92.4% | 64.03% | 73.33% | 82.3% | 92.37% | Dose-dependent effect | Dose-dependent effect | – | – | – | – | – | – | – | –
O=C1COc2cccc(c2)OCC(=O)NCc2ccc(cc2)-c2cccc(c2)-c2ccc(cc2)CN1 | 14.5% | 25.4% | 60.5% | 83.3% | 96.8% | 74.5% | 85.4% | – | 96.4% | Dose-dependent effect | Dose-dependent effect | – | – | – | – | – | – | – | –
O=C1NCc2ccc(cc2)-c2cccc(c2)-c2ccc(cc2)CNC(=O)c2cccc(c2)OCc2cccc(c2)COc2cccc1c2 | 19.4% | 44.8% | 63.4% | 78.3% | 90.5% | 64.27% | 72.53% | 83.07% | 93.03% | Dose-dependent effect | Dose-dependent effect | – | – | – | – | – | – | – | –
O=C1NCc2ccc(cc2)-c2cccc(c2)-c2ccc(cc2)CNC(=O)c2cccc(c2)OCc2ccccc2-c2ccccc2COc2cccc1c2 | 39.2% | 49.5% | 67.8% | 75.7% | 87.8% | 70.27% | 82.6% | 91.2% | 93.3% | Dose-dependent effect | Dose-dependent effect | <= 2 | <= 2 | <= 2 | <= 2 | <= 2 | <= 2 | <= 2 | <= 2
